Our source for the EC50 values is ChEMBL document CHEMBL4257221, “Peptides comprising non-natural amino acids and methods of making and using the same” (2016).

Experiment [1] addresses T1, Vasoactive intestinal polypeptide receptor 1 (Homo sapiens, UniProt P32241).
T1 sequence (P32241 whole entry): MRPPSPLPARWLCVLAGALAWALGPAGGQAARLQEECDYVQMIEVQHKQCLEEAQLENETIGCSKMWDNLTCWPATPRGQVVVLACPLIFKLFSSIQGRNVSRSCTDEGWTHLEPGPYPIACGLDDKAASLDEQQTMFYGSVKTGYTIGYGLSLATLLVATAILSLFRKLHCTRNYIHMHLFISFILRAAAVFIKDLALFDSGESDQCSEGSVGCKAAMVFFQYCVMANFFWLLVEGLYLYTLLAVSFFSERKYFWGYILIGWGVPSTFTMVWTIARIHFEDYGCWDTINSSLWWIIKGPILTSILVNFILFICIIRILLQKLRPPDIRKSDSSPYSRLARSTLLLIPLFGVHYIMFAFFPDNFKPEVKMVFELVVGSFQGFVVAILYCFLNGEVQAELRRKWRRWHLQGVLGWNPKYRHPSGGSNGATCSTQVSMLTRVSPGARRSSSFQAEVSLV
The experiment in a line: Agonist activity at human VIPR1 expressed in CHOK1 cells assessed as intracellular cAMP accumulation after 60 mins by PathHunter assay. It counts as functional, cell-based. For orientation: cAMP levels reflect the balance of adenylyl cyclase and phosphodiesterase activity.

The target in experiment [2] is T2, Vasoactive intestinal polypeptide receptor 2 (Homo sapiens, UniProt P41587).
T2 sequence (P41587 whole entry): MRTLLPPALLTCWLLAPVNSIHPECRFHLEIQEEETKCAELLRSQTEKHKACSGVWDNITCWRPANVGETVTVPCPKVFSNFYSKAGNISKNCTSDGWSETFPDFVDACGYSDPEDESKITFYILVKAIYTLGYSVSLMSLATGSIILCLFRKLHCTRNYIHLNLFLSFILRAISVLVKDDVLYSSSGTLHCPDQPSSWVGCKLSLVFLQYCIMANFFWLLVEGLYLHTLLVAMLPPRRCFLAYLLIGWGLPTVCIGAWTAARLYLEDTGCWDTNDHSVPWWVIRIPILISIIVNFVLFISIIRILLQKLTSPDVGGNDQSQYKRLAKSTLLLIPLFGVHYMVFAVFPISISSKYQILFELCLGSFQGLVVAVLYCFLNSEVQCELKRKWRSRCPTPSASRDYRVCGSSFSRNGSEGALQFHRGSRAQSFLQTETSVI
Kind of experiment: Agonist activity at human VIPR2 expressed in CHOK1 cells assessed as intracellular cAMP accumulation after 60 mins by PathHunter assay. It is filed as functional, cell-based.

Numbered stars: 1 amine (or outer) side, 2 acyl side, 3 side chain; on linkers, the order of the positions; unused ones are H or OH. Square brackets hold non-standard residues; d marks the D form. Peptide text beside a SMILES is read from it. ξ: configuration not given here. X1 = O=C([C@H]1CCC[C@@H]1N[*:1])[*:2]; X2 = O=C([C@H]1CNC[C@@H]1N[*:1])[*:2]; ξβ3hN = NC(=O)CC(N)CC(=O)O; ξβ3hL = CC(C)CC(N)CC(=O)O; ξβ3hK = NCCCCC(N)CC(=O)O; βAla = NCCC(=O)O Some results are limits rather than exact numbers.

With `CC[C@H](C)[C@H](NC(=O)[C@H](C)NC(=O)[C@H](CC(N)=O)NC(=O)CC(CC(C)C)NC(=O)[C@H](Cc1ccc(O)cc1)NC(=O)[C@H](CCCCN)NC(=O)[C@H](CCCCN)NC(=O)CC(NC(=O)[C@H](C)NC(=O)[C@H](CC(C)C)NC(=O)[C@H](CCC(N)=O)NC(=O)CC(CCCCN)NC(=O)[C@H](CCCNC(=N)N)NC(=O)[C@H](CC(C)C)NC(=O)[C@H](CCCNC(=N)N)NC(=O)CC(NC(=O)[C@H](Cc1ccc(O)cc1)NC(=O)[C@H](CC(N)=O)NC(=O)[C@H](CC(=O)O)NC(=O)CC(NC(=O)[C@H](Cc1ccccc1)NC(=O)[C@@H](NC(=O)[C@H](C)NC(=O)CC(CC(=O)O)NC(=O)[C@@H](Cc1ccccc1)NC(=O)[C@@H](N)Cc1cnc[nH]1)C(C)C)C(C)O)C(C)O)C(C)C)C(=O)NC(CC(=O)N[C@@H](CC(N)=O)C(=O)O)CC(C)C` (stereo partly specified), the EC50 (in general, the concentration needed to bring the measured effect to its halfway point) in experiment [1] turned out to be 912 nM; in experiment [2], 609 nM.
As for `CC[C@H](C)[C@H](NC(=O)[C@H](C)NC(=O)[C@H](CC(N)=O)NC(=O)CC(CC(C)C)NC(=O)[C@H](Cc1ccc(O)cc1)NC(=O)[C@H](CCCCN)NC(=O)[C@H](CCCCN)NC(=O)CC(NC(=O)[C@H](C)NC(=O)[C@H](CC(C)C)NC(=O)[C@H](CCC(N)=O)NC(=O)CC(CCCCN)NC(=O)[C@H](CCCNC(=N)N)NC(=O)[C@H](CC(C)C)NC(=O)[C@H](CCCNC(=N)N)NC(=O)CC(NC(=O)[C@H](Cc1ccc(O)cc1)NC(=O)CC(CC(N)=O)NC(=O)[C@H](CC(=O)O)NC(=O)[C@@H](NC(=O)[C@H](Cc1ccccc1)NC(=O)CC(NC(=O)[C@H](C)NC(=O)[C@H](CC(=O)O)NC(=O)[C@@H](Cc1ccccc1)NC(=O)[C@@H](N)Cc1cnc[nH]1)C(C)C)[C@@H](C)O)C(C)O)C(C)C)C(=O)NC(CC(=O)N[C@@H](CC(N)=O)C(=O)O)CC(C)C` (stereo partly specified), the EC50 in experiment [1] was more than 1000 nM; in experiment [2] it was 989 nM.
In the same order, the values of `CC[C@H](C)[C@H](NC(=O)[C@H](C)NC(=O)[C@H](CC(N)=O)NC(=O)CC(CC(C)C)NC(=O)[C@H](Cc1ccc(O)cc1)NC(=O)[C@H](CCCCN)NC(=O)[C@H](CCCCN)NC(=O)CC(NC(=O)[C@H](C)NC(=O)[C@H](CC(C)C)NC(=O)[C@H](CCC(N)=O)NC(=O)CC(CCCCN)NC(=O)[C@H](CCCNC(=N)N)NC(=O)[C@H](CC(C)C)NC(=O)[C@H](CCCNC(=N)N)NC(=O)CC(NC(=O)[C@H](Cc1ccc(O)cc1)NC(=O)[C@H](CC(N)=O)NC(=O)[C@H](CC(=O)O)NC(=O)[C@@H](NC(=O)[C@H](Cc1ccccc1)NC(=O)[C@@H](NC(=O)[C@H](C)NC(=O)[C@H](CC(=O)O)NC(=O)[C@@H](Cc1ccccc1)NC(=O)[C@@H](N)Cc1cnc[nH]1)C(C)C)[C@@H](C)O)C(C)O)C(C)C)C(=O)NC(CC(=O)N[C@@H](CC(N)=O)C(=O)O)CC(C)C` (stereo partly specified) are 619000 nM and 344 nM.
The matching figures for `CC[C@H](C)[C@H](NC(=O)[C@H](C)NC(=O)[C@H](CC(N)=O)NC(=O)CC(CC(C)C)NC(=O)[C@H](Cc1ccc(O)cc1)NC(=O)[C@H](CCCCN)NC(=O)[C@H](CCCCN)NC(=O)CC(NC(=O)[C@H](C)NC(=O)[C@H](CC(C)C)NC(=O)[C@H](CCC(N)=O)NC(=O)CC(CCCCN)NC(=O)[C@H](CCCNC(=N)N)NC(=O)[C@H](CC(C)C)NC(=O)[C@H](CCCNC(=N)N)NC(=O)CC(NC(=O)[C@H](Cc1ccc(O)cc1)NC(=O)[C@H](CC(N)=O)NC(=O)[C@H](CC(=O)O)NC(=O)[C@@H](NC(=O)[C@H](Cc1ccccc1)NC(=O)CC(NC(=O)[C@H](C)NC(=O)[C@H](CC(=O)O)NC(=O)[C@@H](Cc1ccccc1)NC(=O)[C@@H](N)Cc1cnc[nH]1)C(C)C)[C@@H](C)O)C(C)O)C(C)C)C(=O)NC(CC(=O)N[C@@H](CC(N)=O)C(=O)O)CC(C)C` (stereo partly specified): 71.2 nM and 50.3 nM.
In the same order, the values of `CC[C@H](C)[C@H](NC(=O)[C@H](C)NC(=O)[C@H](CC(N)=O)NC(=O)CC(CC(C)C)NC(=O)[C@H](Cc1ccc(O)cc1)NC(=O)[C@H](CCCCN)NC(=O)[C@H](CCCCN)NC(=O)CC(NC(=O)[C@H](C)NC(=O)[C@H](CC(C)C)NC(=O)[C@H](CCC(N)=O)NC(=O)CC(CCCCN)NC(=O)[C@H](CCCNC(=N)N)NC(=O)[C@H](CC(C)C)NC(=O)[C@H](CCCNC(=N)N)NC(=O)CC(NC(=O)[C@H](Cc1ccc(O)cc1)NC(=O)[C@H](CC(N)=O)NC(=O)[C@H](CC(=O)O)NC(=O)[C@@H](NC(=O)[C@H](Cc1ccccc1)NC(=O)[C@H]1CCC[C@@H]1NC(=O)[C@H](C)NC(=O)[C@H](CC(=O)O)NC(=O)[C@@H](Cc1ccccc1)NC(=O)[C@@H](N)Cc1cnc[nH]1)[C@@H](C)O)C(C)O)C(C)C)C(=O)NC(CC(=O)N[C@@H](CC(N)=O)C(=O)O)CC(C)C` (stereo partly specified) are 89.3 nM and more than 1000 nM.
Regarding `CC[C@H](C)[C@H](NC(=O)[C@H](CO)NC(=O)[C@H]1CCC[C@@H]1NC(=O)[C@H](CC(C)C)NC(=O)[C@H](Cc1ccc(O)cc1)NC(=O)[C@H]1CNC[C@@H]1NC(=O)[C@H](CCCCN)NC(=O)[C@H](C)NC(=O)[C@H](C)NC(=O)[C@H]1CCC[C@@H]1NC(=O)[C@H](CCC(N)=O)NC(=O)[C@H](CCCCN)NC(=O)[C@H](CCCNC(=N)N)NC(=O)[C@H](CC(C)C)NC(=O)[C@H](CCCNC(=N)N)NC(=O)[C@@H](NC(=O)[C@H](Cc1ccc(O)cc1)NC(=O)[C@H](CC(N)=O)NC(=O)[C@H](CC(=O)O)NC(=O)[C@@H](NC(=O)[C@H](Cc1ccccc1)NC(=O)[C@@H](NC(=O)[C@H](C)NC(=O)[C@H](CC(=O)O)NC(=O)[C@H](CO)NC(=O)[C@H](Cc1cnc[nH]1)NC(C)=O)C(C)C)[C@@H](C)O)[C@@H](C)O)C(=O)N[C@@H](CCCCN)C(=O)NC(CC(N)=O)CC(=O)N[C@@H](CCCCN)C(=O)N[C@@H](CCCNC(=N)N)C(=O)N[C@@H](Cc1ccc(O)cc1)C(=O)O` (stereo partly drawn) (Ac-HSDAVFTDNYTRLRKQ[X1]AAK[X2]YL[X1]SIK[ξβ3hN]KRY-OH), the results for the concentration for a half-maximal effect (EC50) in experiment [1] and in experiment [2] were 0.195 nM and 0.0785 nM, respectively.
In the same order, the values of `CC(=O)N[C@@H](Cc1cnc[nH]1)C(=O)N[C@@H](CO)C(=O)N[C@@H](CC(=O)O)C(=O)N[C@@H](C)C(=O)N[C@H](C(=O)N[C@@H](Cc1ccccc1)C(=O)N[C@H](C(=O)N[C@@H](CCC(=O)O)C(=O)N[C@@H](CC(N)=O)C(=O)N[C@@H](Cc1ccc(O)cc1)C(=O)N[C@H](C(=O)N[C@@H](CCCCN)C(=O)N[C@@H](CC(C)C)C(=O)N[C@@H](CCCNC(=N)N)C(=O)N[C@@H](CCCCN)C(=O)N[C@@H](CCC(N)=O)C(=O)N[C@@H](CC(C)C)C(=O)N[C@@H](C)C(=O)N[C@@H](C)C(=O)N[C@H]1CNC[C@@H]1C(=O)N[C@@H](CCCCN)C(=O)N[C@@H](Cc1ccc(O)cc1)C(=O)N[C@H]1CCC[C@@H]1C(=O)N[C@@H](CC(N)=O)C(=O)N[C@@H](CC(=O)O)C(=O)N[C@@H](CC(C)C)C(=O)NC(CCCCN)CC(=O)N[C@@H](CCCCN)C(=O)NCC(=O)NCCC(=O)N[C@H](C(=O)O)[C@@H](C)O)[C@@H](C)O)[C@@H](C)O)C(C)C` (stereo partly drawn) (Ac-HSDAVFTENYTKLRKQLAA[X2]KY[X1]NDL[ξβ3hK]KG[βAla]T-OH) are more than 1000 nM and 0.963 nM.
The matching figures for `CC(=O)N[C@@H](Cc1cnc[nH]1)C(=O)N[C@@H](CO)C(=O)N[C@@H](CC(=O)O)C(=O)N[C@@H](C)C(=O)N[C@H](C(=O)N[C@@H](Cc1ccccc1)C(=O)N[C@H](C(=O)N[C@@H](CCC(=O)O)C(=O)N[C@@H](CC(N)=O)C(=O)N[C@@H](Cc1ccc(O)cc1)C(=O)N[C@H](C(=O)N[C@@H](CCCCN)C(=O)N[C@@H](CC(C)C)C(=O)N[C@@H](CCCNC(=N)N)C(=O)N[C@@H](CCCCN)C(=O)N[C@@H](CCC(N)=O)C(=O)N[C@@H](CC(C)C)C(=O)N[C@@H](C)C(=O)N[C@H]1CCC[C@@H]1C(=O)N[C@@H](CCCCN)C(=O)N[C@@H](CCCCN)C(=O)N[C@@H](Cc1ccc(O)cc1)C(=O)N[C@H]1CCC[C@@H]1C(=O)N[C@@H](CC(N)=O)C(=O)N[C@@H](CC(=O)O)C(=O)NC(CC(=O)N[C@@H](CCCCN)C(=O)N[C@@H](CCCCN)C(=O)NCC(=O)NCCC(=O)N[C@H](C(=O)O)[C@@H](C)O)CC(C)C)[C@@H](C)O)[C@@H](C)O)C(C)C` (stereo partly drawn) (Ac-HSDAVFTENYTKLRKQLA[X1]KKY[X1]ND[ξβ3hL]KKG[βAla]T-OH): 9.09 nM and 104 nM.
